Test results taken from PMC6017200, “Inhibition of Cytochrome P450 Activities by Extracts of Hyptis verticillata Jacq.: Assessment for Potential HERB-Drug Interactions” (Molecules : A Journal of Synthetic Chemistry and Natural …, 2018).
Values after ≈ are worked out from the molar mass of the structure shown. “Also recorded” adds a separate entry of the source. Read-outs that look alike come from different tables or passages of the source.

Tests used:
human CYP1A2 = target: T1, human CYP1A2 (Homo sapiens, UniProt P05177); test: biochemical
T1 sequence (P05177 1-516): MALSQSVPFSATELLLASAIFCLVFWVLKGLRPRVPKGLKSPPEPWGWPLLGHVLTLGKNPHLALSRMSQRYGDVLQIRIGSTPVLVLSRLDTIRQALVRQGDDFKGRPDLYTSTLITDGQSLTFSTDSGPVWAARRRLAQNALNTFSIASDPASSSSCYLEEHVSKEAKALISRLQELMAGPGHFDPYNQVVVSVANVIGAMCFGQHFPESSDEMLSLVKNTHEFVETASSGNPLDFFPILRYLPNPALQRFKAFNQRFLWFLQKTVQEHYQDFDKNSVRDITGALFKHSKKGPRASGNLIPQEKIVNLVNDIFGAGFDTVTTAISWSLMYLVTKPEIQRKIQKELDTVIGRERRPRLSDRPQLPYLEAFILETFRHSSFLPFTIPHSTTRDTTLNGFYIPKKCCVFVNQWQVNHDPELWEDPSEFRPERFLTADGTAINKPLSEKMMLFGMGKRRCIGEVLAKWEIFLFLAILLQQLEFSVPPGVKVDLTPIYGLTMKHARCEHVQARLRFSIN
Procedure: Escherichia coli membranes expressing human CYP1A1, CYP1A2, CYP1B1, CYP3A4, and CYP2D6, co-expressed with CYP reductase, were purchased from Cypex Ltd. (Dundee, UK).
The following methodology was developed by Crespi et al. and adapted by Shields et al. and Murray et al. to screen natural products for cytochrome P450 inhibition potential with a particular emphasis on the P450 enzymes, CYPs 1A1, 1A2, 1B1, 3A4 and 2D6. Plant extracts and various phytochemicals were evaluated for their ability to inhibit the catalytic activity of human cytochrome P450 enzymes by means of high throughput fluorometric inhibition assays conducted in 96 well microtitre plates as described by Crespi et al., BD Gentest and Murray et al..
7-Ethoxy-3-cyanocoumarin (CEC) was used as a substrate for detecting the activities of CYPs 1A1, and 1A2, 7-ethoxyresorufin (ERes) for CYP1B1, 7-benzyloxy-4-trifluoromethylcoumarin (BFC) for CYP3A4, and 3-[2-(N,N-diethyl-N-methylammonium)-ethyl]-7-methoxy-4-methylcoumarin (AMMC) for CYP2D6. The reactions were monitored fluorometrically at 37 °C, using an Eclipse Fluorescence Spectrophotometer (Varian Cary, Palo Alto, CA, USA).
The data listed represent average values from a minimum of two experiments run in triplicate: % Enzyme activity = [Min + (Max − Min)/(1+10^((LogIC50^− x) × p))] where Min and Max are the minimal and maximal observed effects, respectively; x is the concentration of test agent; EC50 is the concentration yielding half-maximal response (i.e., IC50); and p is the slope parameter.

[1] = DPPH radical scavenging antioxidant assay; conditions: 0.097 to 50 µg/mL in methanol, thirty-minute incubation, 517 nm
Procedure: The 1,1-diphenyl-2-picrylhydrazyl (DPPH) assay was used to measure the antioxidant capacity of four different extracts of the aerial parts of H. verticillata (Figure 2). The reduction of DPPH to hydrazine produces a colour change from purple to yellow, which is measured spectrophotometrically and compared with the known antioxidant, ascorbic acid, as described in the Materials and Methods section.
Figure 2 (A) DPPH antioxidant assay for H. verticillata extracts. […] Positive control activity was determined in the presence of varying concentrations of known antioxidant, ascorbic acid, ranging from 0.097 to 50 µg/mL. Data are expressed as Mean Percentage Antioxidant Activity (% Inhibition of DPPH) for duplicate assays for at least two independent experiments. (B) Summary of results. […]
The DPPH radical scavenging capacity of extracts of H. verticillata were evaluated by the method described by Williams et al.. The electron-donating ability of each extract, at varying concentrations, was measured colourimetrically through the bleaching of purple-coloured MeOH solution of DPPH. […]
Each test extract, as well as the ascorbic acid control, was made up in methanol to a starting concentration of 50 µg/mL and serially diluted in ninety-six well microtitre plates. […] After a thirty-minute incubation period at room temperature, the absorbance was read against a blank, comprising methanol, at 517 nm. […]

CYP2D6 = conditions: read-out: IC50 Value, reported CYP2D6 inhibition, cited from earlier work
CYP1A2 = conditions: human liver microsomes, read-out: IC50 Value, reported CYP1A2 inhibition, cited from earlier work
CYP2C8/C9/C19 = conditions: human liver microsomes; read-out: IC50 Value, reported CYP2C8/C9/C19 inhibition; cited from earlier work
CYP3A4 = conditions: cited from earlier work; for IC50: read-out: IC50 Value, reported CYP3A4 inhibition
CYP2C9 = tested on: CYP2C9; design: method as in PMID 21276781; conditions: read-out: IC50 Value, reported CYP2C9 inhibition; cited from earlier work
[2] = design: method as in PMID 24413832; conditions: aerial dried samples in ethanol; cited from earlier work
[3] = recombinant human CYP1A2, individual phytochemicals

For `COc1cc([C@@H]2c3cc4c(cc3[C@H](O)[C@H]3COC(=O)[C@H]23)OCO4)cc(OC)c1O` [4′-Demethylpodophyllotoxin], the “IC50, CYP1A2 activity” value (human CYP1A2; [3]) was “No inhibition”, the “IC50, CYP1A2 activity” value (human CYP1A2; recombinant human CYP1A2, individual phytochemicals, listed as 4-demethylpodophyllotoxin) was “no inhibition” and the “IC50, CYP1A2 activity” value (human CYP1A2; recombinant human CYP1A2, individual phytochemicals, listed as 4′-demethylpodophyllotoxin) was “no impact”.

With `COc1cc(C[C@H]2C(=O)OC[C@@H]2Cc2ccc3c(c2)OCO3)cc(OC)c1OC` [(-)-Yatein] the IC50 (human CYP1A2) was 71.9 ± 1.8 µM.

With `O=C1O[C@H]([C@@H](O)CO)C(O)=C1O` [Ascorbic acid] the “IC50, DPPH antioxidant assay” value [1] was 1.32 ± 0.0 µg/mL (≈ 7.49 µM) and the “IC50, DPPH antioxidant assay” value ([1]; listed as ascorbic acid) was 1.3 µg/mL (≈ 7.38 µM).

`C=C1CCC(C(C)C)C2C=C(C)C(=O)CC12` (stereo not drawn) [Cadina-4,10(15)-dien-3-one] gave an IC50 (human CYP1A2; read-out: IC50, CYP1A2 activity, recombinant human CYP1A2, individual phytochemicals) greater than 500 µM.

For `CC1(C)CC[C@]2(C(=O)O)CC[C@]3(C)C(=CC[C@@H]4[C@@]5(C)CC[C@H](O)C(C)(C)[C@@H]5CC[C@]43C)[C@@H]2C1` [Oleanolic acid], the IC50 (human CYP1A2) is given as greater than 100 µM, the IC50 (CYP2D6; human liver microsomes) is given as greater than 500 µM and the IC50 (CYP1A2; listed as oleanolic) is given as greater than 100 µM. For the same compound, the IC50 (CYP1A2) was 144 µM, the IC50 (CYP2C8/C9/C19) was greater than 500 µM and the IC50 (CYP3A4; human liver microsomes) was […].

With `COc1cc([C@@H]2c3cc4c(cc3[C@H](O)[C@H]3COC(=O)[C@H]23)OCO4)cc(OC)c1OC` [Podophyllotoxin] the “IC50, CYP1A2 activity” value (human CYP1A2; [3]) was “No inhibition” and the “IC50, CYP1A2 activity” value (human CYP1A2; recombinant human CYP1A2, individual phytochemicals, listed as podophyllotoxin) was “no impact; also recorded: no inhibition”.

In the case of `O=C(/C=C/c1ccc(O)c(O)c1)O[C@H](Cc1ccc(O)c(O)c1)C(=O)O` [Rosmarinic acid], the IC50 (CYP2D6) is listed as greater than 500 µM, the IC50 (CYP2C9) is listed as 319 µM and the “IC50 Value, reported CYP3A4 inhibition” value (CYP3A4) is listed as “No impact”. The IC50 (CYP3A4) was 241 µM.

For `Cc1c(C)c2c(c(C)c1O)CCC(C)(C(=O)O)O2` (stereo not drawn) [Trolox], the “IC50, DPPH assay” value [2] is listed as 1.99 µg/mL (≈ 7.95 µM).

`C[C@H]1[C@H](C)CC[C@]2(C(=O)O)CC[C@]3(C)C(=CC[C@@H]4[C@@]5(C)CC[C@H](O)C(C)(C)[C@@H]5CC[C@]43C)[C@H]12` [Ursolic acid] showed an IC50 (human CYP1A2) greater than 100 µM.
